This passage reports Kd and IC50 results from US20120129842A1, “BISTHIAZOLE INHIBITORS OF PRO-MATRIX METALLOPROTEINASE ACTIVATION” (priority 2010, published 2012).

The target of assay [1] is T1, proMMP9(67-444;ΔFnII) (SEQ ID NO:5) (Homo sapiens, UniProt P14780, DEL216-390).
T1 construct: start methionine (N); made in house; host or cells: E. coli BL21(DE3) RIL
T1 sequence (P14780 with tags, fused parts or gaps DEL216-390): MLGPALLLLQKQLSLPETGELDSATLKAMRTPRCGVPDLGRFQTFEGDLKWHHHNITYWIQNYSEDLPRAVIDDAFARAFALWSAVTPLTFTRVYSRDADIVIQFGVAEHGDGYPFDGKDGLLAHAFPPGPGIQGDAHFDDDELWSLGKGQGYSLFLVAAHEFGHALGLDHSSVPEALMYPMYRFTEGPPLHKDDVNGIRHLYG
As to the kind of experiment: ThermoFluor binding assay with proMMP9(67-444;ΔFnII). To be noted: pH 7.0. The method, boiled down: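 Thermal shift binding with 3.5 μM proMMP9(67-444;ΔFnII) and 50 μM 1,8-ANS in 50 mM HEPES pH 7.0, 100 mM NaCl, 2.5 mM MgCl2, 300 μM CaCl2, 0.001% Tween-20, with serially diluted compound. Heated 40 to 90° C at 1° C/min; fluorescence-derived Tm fitted using DSC/ThermoFluor thermodynamic parameters.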
On the technique in general: In DSF a fluorescence change marks the thermal transition of the protein.

In assay [2] the target is T2, full-length proMMP9(1-707) (SEQ ID NO:1) (Homo sapiens, UniProt P14780, R574P).
T2 construct: made in house; host or cells: HEK293 (proMMP9, secreted); E. coli (MMP3)
T2 sequence (P14780 20-707 R574P): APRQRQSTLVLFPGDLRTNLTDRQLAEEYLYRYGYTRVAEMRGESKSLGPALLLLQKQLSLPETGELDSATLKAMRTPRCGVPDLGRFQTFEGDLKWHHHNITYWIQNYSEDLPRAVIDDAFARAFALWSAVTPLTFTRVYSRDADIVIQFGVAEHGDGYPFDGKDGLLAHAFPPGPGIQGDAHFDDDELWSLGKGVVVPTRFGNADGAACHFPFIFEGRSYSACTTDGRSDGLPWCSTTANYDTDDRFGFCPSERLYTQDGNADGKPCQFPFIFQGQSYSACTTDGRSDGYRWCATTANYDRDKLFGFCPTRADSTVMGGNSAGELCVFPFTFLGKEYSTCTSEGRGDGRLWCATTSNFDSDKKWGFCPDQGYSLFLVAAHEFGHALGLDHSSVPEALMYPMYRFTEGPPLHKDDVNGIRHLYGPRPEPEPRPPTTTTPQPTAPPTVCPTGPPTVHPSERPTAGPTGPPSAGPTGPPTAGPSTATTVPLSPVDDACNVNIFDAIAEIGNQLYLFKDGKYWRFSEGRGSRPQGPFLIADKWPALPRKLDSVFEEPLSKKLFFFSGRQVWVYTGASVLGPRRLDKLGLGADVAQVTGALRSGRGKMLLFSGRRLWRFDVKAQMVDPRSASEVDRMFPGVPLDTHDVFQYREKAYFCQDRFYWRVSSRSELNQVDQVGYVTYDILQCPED
As to the kind of experiment: proMMP9/MMP3 P126 Activation Assay. It counts as biochemical. To be noted: 20 nM proMMP9, 20 nM MMP3, 80 min 37° C. The method, then:
The reaction volume was 50 μL. […] Reactivity of residual MMP3 towards P-126 substrate was minimal under these conditions.

In assay [3] the target is proMMP13(1-268) (SEQ ID NO:7) (Homo sapiens, UniProt P45452). As to the kind of experiment: ThermoFluor binding assay with proMMP13(1-268). More on the design: 6xHis (C); made in house. To be noted: pH 7.0. The method, then: The ThermoFluor® (TF) assay is a 384-well plate-based binding assay that measures thermal stability of proteins (Biomol Screen 2001, 6, 429-40; Biochemistry 2005, 44, 5258-66). The experiments were carried out using instruments available from Johnson & Johnson Pharmaceutical Research & Development, LLC. TF dye used in all experiments was […] (1,8-ANS) (Invitrogen: A-47).
Compounds were arranged in a pre-dispensed plate (Greiner Bio-one: 781280), wherein compounds were serially diluted in 100% DMSO across 11 columns within a series. Columns 12 and 24 were used as DMSO reference and contained no compound. For multiple compound concentration-response experiments, the compound aliquots ([…]) were robotically predispensed directly into black 384-well polypropylene PCR microplates (Abgene: TF-0384/k) using a Cartesian Hummingbird liquid handler (DigiLab, Holliston, Mass.). Following compound dispense, protein and dye solutions were added to achieve the final assay volume of 3 μL. The assay solutions were overlayed with 1 μL of silicone oil (Fluka, type DC 200: 85411) to prevent evaporation.
Assay plates were robotically loaded onto a thermostatically controlled PCR-type thermal block and then heated from 40 to 90° C. at a ramp-rate of 1° C./min for all experiments. Fluorescence was measured by continuous illumination with UV light (Hamamatsu LC6) supplied via fiber optics and filtered through a band-pass filter (380-400 nm; >6 OD cutoff). Fluorescence emission of the entire 384-well plate was detected by measuring light intensity using a CCD camera (Sensys, Roper Scientific) filtered to detect 500±25 nm, resulting in simultaneous and independent readings of all 384 wells. A single image with 20-sec exposure time was collected at each temperature, and the sum of the pixel intensity in a given area of the assay plate was recorded vs temperature and fit to standard equations to yield the Tm (J Biomol Screen 2001, 6, 429-40).
Thermodynamic parameters necessary for fitting compound binding for each proMMP were estimated by differential scanning calorimetry (DSC) and from ThermoFluor® data. The heat capacity of unfolding for each protein was estimated from the molecular weight and from ThermoFluor® dosing data.
The proMMP13(1-268) (SEQ ID NO:7) protein sample preparations included a desalting buffer exchange step via a PD-10 gravity column (GE Healthcare). The desalting buffer exchange was performed prior to diluting the protein to the final assay concentration of 3.5 μM. The concentration of proMMP13(1-268) (SEQ ID NO:7) was estimated spectrophotometrically based on a calculated extinction coefficient of ε280=37000 M^−1cm^−1, a calculated molecular weight of 30.8 kDa, and calculated pI of 5.33. ThermoFluor® reference conditions were defined as follows: 100 μg/mL proMMP13(1-268) (SEQ ID NO:7), 25 μM 1,8-ANS, pH 7.0 Buffer (50 mM HEPES pH 7.0, 100 mM NaCl, 0.001% Tween-20, 2.5 mM MgCl2, 300 μM CaCl2). The thermodynamic parameters for proMMP13(1-268) (SEQ ID NO:7) are as follows: Tm (° C.)=67 (+/−0.1), ΔUH(Tm) (cal mol^−1)=107000(+/−5000), ΔUS(Tm) (cal mol^−1 K^−1)=318, ΔUCp (cal mol^−1 K^−1)=2600.

For assay [4], the target named is T3, proMMP9(20-445;ΔFnII) (SEQ ID NO:6) (Homo sapiens, UniProt P14780, DEL216-390).
T3 construct: start methionine (N); made in house; host or cells: E. coli BL21(DE3) RIL
T3 sequence (P14780 with tags, fused parts or gaps DEL216-390): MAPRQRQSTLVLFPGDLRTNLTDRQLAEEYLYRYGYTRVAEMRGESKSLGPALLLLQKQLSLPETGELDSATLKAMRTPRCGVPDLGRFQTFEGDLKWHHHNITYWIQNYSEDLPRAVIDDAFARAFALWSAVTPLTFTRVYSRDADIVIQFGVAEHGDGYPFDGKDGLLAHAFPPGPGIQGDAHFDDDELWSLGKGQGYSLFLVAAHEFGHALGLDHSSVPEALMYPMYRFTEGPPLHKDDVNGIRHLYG
As to the kind of experiment: ThermoFluor binding assay with proMMP9(20-445;ΔFnII). To be noted: pH 7.0. The essentials:
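proMMP9(20-445;ΔFnII) at 2.8 μM with 50 μM 1,8-ANS in 50 mM HEPES pH 7.0, 100 mM NaCl, 0.001% Tween-20, 2.5 mM MgCl2, 300 μM CaCl2; compounds serially diluted in DMSO. Heated 40–90 °C at 1 °C/min, fluorescence read at 500±25 nm. Tm fit by standard equations; binding fit using DSC/TF-derived thermodynamic parameters.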

Structures can show the parent of a compound that is named as a salt.

What is called Kd is a measure of binding affinity in units of concentration. By IC50 is commonly meant the concentration at which inhibition is half-maximal. Read a low IC50 as inhibition by little substance.

Regarding `CC(=O)Nc1nc(C)c(-c2csc(Nc3cc(C(N)=O)ccc3OC(C)C)n2)s1` [Example 3, 3-(2′-Acetylamino-4′-methyl-[4,5′]bithiazolyl-2-ylamino)-4-isopropoxy-benzamide.HBr], the values for the Kd in assay [1], in assay [3] and in assay [4] were 0.3 µM, 0.3 µM and 0.41 µM, respectively. The compound further yielded an IC50 in assay [2] of 0.13 µM.

With `Cc1nc(C)c(-c2nc(Nc3cc(C(N)=O)ccc3OC(C)C)sc2Br)s1` [Example 4, 3-(5-Bromo-2′,4′-dimethyl-[4,5′]bithiazolyl-2-ylamino)-4-isopropoxy-benzamide], the Kd is 3.1 µM in assay [1], 3.2 µM in assay [3] and 1.2 µM in assay [4]. This compound came in with an IC50 in assay [2] of 9 µM.

In the case of `COc1ccc(C(N)=O)cc1Nc1nc(-c2sc(N)nc2C)cs1` [Example 5, 3-(2′-Amino-4′-methyl-[4,5′]bithiazolyl-2-ylamino)-4-methoxy-benzamide.HBr], the Kd in assay [1] was found to be 0.56 µM; in assay [3] it was 4.9 µM; in assay [4], 0.27 µM. Besides, the IC50 in assay [2] stood at 0.85 µM.

With `CCOc1ccc(C(N)=O)cc1Nc1nc(-c2sc(C)nc2C)cs1` [Example 6, 3-(2′,4′-Dimethyl-[4,5′]bithiazolyl-2-ylamino)-4-ethoxy-benzamide.TFA], the Kd in assay [1] is 0.58 µM; in assay [3] it was 2 µM; in assay [4] it was 0.2 µM. The compound also registered an IC50 in assay [2] of 0.16 µM.

For the compound `CCOc1ccc(C(N)=O)cc1Nc1nc(-c2sc(N)nc2C)cs1` [Example 7, 3-(2′-Amino-4′-methyl-[4,5′]bithiazolyl-2-ylamino)-4-ethoxy-benzamide], the Kd came to 0.34 µM in assay [1], 1.4 µM in assay [3] and 0.089 µM in assay [4]. In assay [2], the IC50 is 0.26 µM.

On to `CCOc1ccc(C(N)=O)cc1Nc1nc(-c2sc(NC(C)=O)nc2C)cs1` [Example 8, 3-(2′-Acetylamino-4′-methyl-[4,5′]bithiazolyl-2-ylamino)-4-ethoxy-benzamide.TFA], for which the Kd was 0.56 µM in assay [1], 39 µM in assay [3] and 1.3 µM in assay [4]. Besides, 0.1 µM corresponded to half-maximal inhibition in assay [2] (IC50).

For the compound `CCCOc1ccc(C(N)=O)cc1Nc1nc(-c2sc(C)nc2C)cs1` [Example 13, 3-(2′,4′-Dimethyl-[4,5′]bithiazolyl-2-ylamino)-4-propoxy-benzamide], the Kd in assay [1] was 5.1 µM; in assay [3] it was 7 µM; in assay [4], 0.83 µM. The IC50 in assay [2] was found to be 6.1 µM.

In the case of `Cc1nc(C)c(-c2csc(Nc3cc(C(N)=O)ccc3OC3CCCC3)n2)s1` [Example 15, 4-Cyclopentyloxy-3-(2′,4′-dimethyl-[4,5′]bithiazolyl-2-ylamino)-benzamide], the Kd in assay [1] is above 95 µM; in assay [3], 13 µM; in assay [4] it was 7.9 µM. The same compound showed an IC50 in assay [2] above 20 µM.

For the compound `Cc1nc(C)c(-c2csc(Nc3cc(C(N)=O)ccc3OC(F)(F)F)n2)s1` [Example 17, 3-(2′,4′-Dimethyl-[4,5′]bithiazolyl-2-ylamino)-4-trifluoromethoxy-benzamide], the Kd is 0.73 µM in assay [1], 12 µM in assay [3] and 0.082 µM in assay [4]. For the same compound, it took 0.46 µM to reach half-maximal inhibition in assay [2] (IC50).

Consider `COc1ccc(C(N)=O)cc1Nc1nc(-c2sc(C)nc2C)cs1` [Example 18, 3-(2′,4′-Dimethyl-[4,5′]bithiazolyl-2-ylamino)-4-methoxy-benzamide.HBr], for which the Kd in assay [1] was 0.84 µM; in assay [3], 14 µM; in assay [4] it was 0.34 µM. The same compound returned an IC50 in assay [2] of 0.69 µM.

For the compound `Cc1ccc(C(N)=O)cc1Nc1nc(-c2sc(N)nc2C)cs1` [Example 25, 3-(2′-Amino-4′-methyl-[4,5′]bithiazolyl-2-ylamino)-4-methyl-benzamide.HBr], the Kd amounted to 6.8 µM in assay [1], 31 µM in assay [3] and 2.7 µM in assay [4]. Also, the IC50 in assay [2] is 4.6 µM.

`CC(=O)Nc1nc(C)c(-c2csc(Nc3cc(C(N)=O)ccc3Cl)n2)s1` [Example 26, 3-(2′-Acetylamino-4′-methyl-[4,5′]bithiazolyl-2-ylamino)-4-chloro-benzamide.HBr]: the results for the equilibrium dissociation constant (Kd) in assay [1], in assay [3] and in assay [4] were 3 µM, 84 µM and 8.9 µM, respectively. Further, the IC50 in assay [2] was above 20 µM.

As to `Cc1nc(C)c(-c2csc(Nc3cc(C(N)=O)ccc3OCC(C)C)n2)s1` [Example 28, 3-(2′,4′-Dimethyl-[4,5′]bithiazolyl-2-ylamino)-4-isobutoxy-benzamide], the Kd in assay [1] is above 95 µM; in assay [3], 56 µM; in assay [4], 11 µM. Further, the IC50 in assay [2] was above 20 µM.

For the compound `Cc1cc2cccc(Nc3nc(-c4sc(C)nc4C)cs3)c2o1` [Example 29, (2′,4′-Dimethyl-[4,5′]bithiazolyl-2-yl)-(2-methyl-benzofuran-7-yl)-amine], the Kd in assay [1] is above 95 µM; in assay [3], above 95 µM; in assay [4], 61 µM. In addition, in assay [2], the IC50 turned out to be 3.8 µM.

In the case of `COc1ccc(CC(N)=O)cc1Nc1nc(-c2sc(C)nc2C)cs1` [Example 30, 2-[3-(2′,4′-Dimethyl-[4,5′]bithiazolyl-2-ylamino)-4-methoxy-phenyl]-acetamide], the Kd in assay [1] was 4.9 µM; in assay [3], above 95 µM; in assay [4], 18 µM. The IC50 in assay [2] was 4.1 µM.

As to `COc1cc2c(cc1Nc1nc(-c3sc(C)nc3C)cs1)C(=O)NC2` [Example 31, 6-(2′,4′-Dimethyl-[4,5′]bithiazolyl-2-ylamino)-5-methoxy-2,3-dihydro-isoindol-1-one], the results for the Kd in assay [1], in assay [3] and in assay [4] were 33 µM, 49 µM and 9 µM, respectively. The IC50 in assay [2] was around 7 µM.
